The text below walks through data of ChEMBL document CHEMBL1127773, “Inhibition of steroid 5-reductase by inverted, competitive inhibitors” (Bioorg Med Chem Lett, 1994).

This assay deals with T1, 3-oxo-5-alpha-steroid 4-dehydrogenase 2 (Homo sapiens, UniProt P31213).
T1 sequence (P31213 whole entry): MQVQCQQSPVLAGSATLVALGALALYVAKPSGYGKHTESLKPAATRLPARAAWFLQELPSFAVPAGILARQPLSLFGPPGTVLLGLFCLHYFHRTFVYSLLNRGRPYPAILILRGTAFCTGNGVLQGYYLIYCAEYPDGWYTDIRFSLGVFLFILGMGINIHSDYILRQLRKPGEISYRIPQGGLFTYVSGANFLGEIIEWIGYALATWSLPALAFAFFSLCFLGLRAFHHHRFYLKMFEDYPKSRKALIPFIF
Description: Inhibitory activity against human prostatic Steroid 5-alpha-reductase.
With `CC(C)N(C(=O)[C@@H]1C[C@@H]2CCC3C4CCC(=O)N(C)[C@@]4(C)CCC3[C@@]2(C)C1)C(C)C` (stereo partly drawn), the IC50 (commonly the midpoint of a concentration-inhibition curve) is above 100 µM.
The compound `CC(C)N(C(=O)[C@@H]1CC2CCC3C(CC[C@@]4(C)C3CCC(=O)N4C)[C@@]2(C)C1)C(C)C` (stereo partly drawn) registered an IC50 of 40 µM.
Next, `CCN(CC)C(=O)[C@H]1CC[C@H]2[C@@H]3CC[C@H]4N(C)C(=O)CC[C@]4(C)[C@H]3CC[C@]12C`: 0.0086 µM; `CN1C(=O)CC[C@@]2(C)C1CC[C@H]1[C@@H]3CC[C@H](O)[C@@]3(C)CC[C@@H]12` (stereo partly drawn): above 0.43 µM.
In turn, `CN1C(=O)CCC2C3CC[C@H]4CC(=O)CC[C@]4(C)C3CC[C@@]21C` (stereo partly drawn) registered an IC50 of 15 µM.
Next, `CN1C(=O)CCC2C3CC[C@H]4C[C@@H](O)CC[C@]4(C)C3CC[C@@]21C` (stereo partly drawn): 4 µM; `CN1C(=O)CCC2C3CCC4[C@@H](O)CC[C@]4(C)C3CC[C@@]21C` (stereo partly drawn): 12 µM; `CN1C(=O)CCC2C3CC=C4C[C@@H](O)CC[C@]4(C)C3CC[C@@]21C` (stereo partly drawn): 32 µM.
